The compounds below were run against T1, POLγA:G848S (Homo sapiens, UniProt P54098, G848S) (assay: DNA polymerization assay, POLγA:G848S mutant). Conditions: stimulation of polymerase activity, primed M13mp18 ssDNA, 37° C. 2 hours; read-out: G848S AC50.
T1 sequence (P54098 1-1239 G848S): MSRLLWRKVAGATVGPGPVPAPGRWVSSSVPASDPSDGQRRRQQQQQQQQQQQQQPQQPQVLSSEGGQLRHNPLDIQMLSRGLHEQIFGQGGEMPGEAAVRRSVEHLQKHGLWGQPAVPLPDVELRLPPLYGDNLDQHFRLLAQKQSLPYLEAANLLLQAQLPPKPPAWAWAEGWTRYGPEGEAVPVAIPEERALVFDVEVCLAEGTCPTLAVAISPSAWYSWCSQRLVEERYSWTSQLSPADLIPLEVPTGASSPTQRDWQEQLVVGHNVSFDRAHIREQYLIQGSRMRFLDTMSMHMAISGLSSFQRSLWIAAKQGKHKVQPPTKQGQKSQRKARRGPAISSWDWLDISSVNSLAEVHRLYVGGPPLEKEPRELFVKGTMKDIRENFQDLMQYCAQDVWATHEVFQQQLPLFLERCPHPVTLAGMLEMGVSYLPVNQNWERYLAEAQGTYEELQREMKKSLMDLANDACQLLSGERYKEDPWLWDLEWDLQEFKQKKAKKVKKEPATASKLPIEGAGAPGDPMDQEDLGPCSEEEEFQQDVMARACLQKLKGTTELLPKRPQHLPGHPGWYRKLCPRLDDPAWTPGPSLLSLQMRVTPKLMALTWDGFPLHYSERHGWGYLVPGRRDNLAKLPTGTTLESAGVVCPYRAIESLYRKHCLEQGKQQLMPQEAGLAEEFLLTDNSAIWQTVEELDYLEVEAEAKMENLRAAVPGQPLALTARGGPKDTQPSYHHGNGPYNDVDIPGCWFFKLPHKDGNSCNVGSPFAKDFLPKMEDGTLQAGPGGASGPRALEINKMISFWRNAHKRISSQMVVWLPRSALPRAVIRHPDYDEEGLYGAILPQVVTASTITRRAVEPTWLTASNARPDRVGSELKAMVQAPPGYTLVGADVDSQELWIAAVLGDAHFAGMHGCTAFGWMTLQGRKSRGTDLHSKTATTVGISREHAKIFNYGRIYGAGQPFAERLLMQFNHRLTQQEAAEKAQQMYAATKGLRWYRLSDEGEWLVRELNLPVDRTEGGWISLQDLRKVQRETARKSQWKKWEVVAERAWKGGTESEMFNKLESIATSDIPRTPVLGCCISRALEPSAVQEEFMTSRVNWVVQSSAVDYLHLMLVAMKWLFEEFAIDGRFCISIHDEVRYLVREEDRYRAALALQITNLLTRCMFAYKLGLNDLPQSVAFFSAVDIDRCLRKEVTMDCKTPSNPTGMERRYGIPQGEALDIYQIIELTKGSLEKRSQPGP
T1 sequence (Q9UHN1 1-485 partner): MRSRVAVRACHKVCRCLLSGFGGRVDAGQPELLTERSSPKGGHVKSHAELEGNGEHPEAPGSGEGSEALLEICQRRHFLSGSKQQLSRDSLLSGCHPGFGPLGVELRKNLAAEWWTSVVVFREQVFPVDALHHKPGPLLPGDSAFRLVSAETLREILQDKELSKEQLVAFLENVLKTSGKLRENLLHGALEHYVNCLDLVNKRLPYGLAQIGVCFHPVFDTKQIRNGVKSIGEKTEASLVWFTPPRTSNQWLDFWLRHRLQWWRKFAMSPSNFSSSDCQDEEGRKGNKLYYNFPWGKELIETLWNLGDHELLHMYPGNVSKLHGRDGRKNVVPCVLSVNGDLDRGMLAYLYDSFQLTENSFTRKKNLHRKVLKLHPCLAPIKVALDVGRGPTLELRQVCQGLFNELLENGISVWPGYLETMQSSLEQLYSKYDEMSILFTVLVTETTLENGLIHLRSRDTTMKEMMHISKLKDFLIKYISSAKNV
Assay type: biochemical
Description: DNA Polymerization Assay to Monitor Effects on Human Wildtype POLγ and Four Disease-Causing Mutant Variants of Human POLγ.
The ability of small molecules to stimulate the polymerase activity of POLγ was analyzed in a quantitative fluorescence SYBR Green I assay with fluorescence intensity (FI) readout.
In the presence of dNTPs, wild type human POLγ and mutant derivatives thereof were incubated with single-stranded, circular M13mp18 ssDNA hybridized to a short DNA oligonucleotide that functions as a primer for initiation of DNA synthesis. POLγ and mutant derivatives thereof will extend the primer and use the M13mp18 molecule as a template to synthesize long stretches of double-stranded DNA. SYBR Green I, which is a double-stranded DNA-binding dye, was used to quantify formation of double-stranded DNA in the reaction. When bound to double-stranded DNA, SYBR Green I fluorescence increases by up to 100-fold.
The assay was performed in the 384-well plate format. Upon addition of compounds, changes in double-stranded DNA synthesis activity can be monitored by following effects on fluorescent intensity.
The reactions also contained the accessory POLγB subunit, and the human mitochondrial single-stranded DNA binding protein (mtSSB).
The DNA template mixture used in the assay contained 0.5 nM primed M13 mp18 ssDNA, 400 nM mtSSB, 0.1 mM Tris-HCl (pH 8.0), 0.1 mM dNTP, 10 mM MgCl2, 0.1 mg/mL BSA, 1 mM TCEP solution, and 0.02% Triton X-100. The DNA template mixture for the wild type protein contained either 100 μM dNTP, 1 μM dNTP, or 0.1 μM dNTP, designated in Table 2 as 100 μM, 1 μM, and 0.1 μM, respectfully.
Microplates with compounds (0.1 μL in each well) to be tested in the assay were prepared from 10 mM compound stocks in 100% DMSO, and equal amounts of DMSO without any compound were added to positive and negative control wells.
The protein mixture was dispensed (5 μL into each well) into compound plates and incubated at 37° C. for 15 minutes. After incubation, 5 μL of the DNA template mixture was dispensed into each well. The plates were then incubated at 37° C. for 2 hours.
During incubation, a combined stop buffer and detection reagent solution was prepared. The buffer contained 25 mM EDTA (pH 8.0), 0.02% Triton X-100, and SYBR Green I [Invitrogen] diluted 10,000× (for fluorescent readout). EDTA will stop the enzymatic reaction by chelating magnesium ions.

Compound | AC50 [µM]
Cc1cc(S(=O)(=O)Nc2cccc(-c3nccs3)c2)c(C)cc1Cl [Example 16, 4-chloro-2,5-dimethyl-N-(3-(thiazol-2-yl)phenyl)benzenesulfonamide] | 2
Cc1cc(S(=O)(=O)Nc2cccc(-c3ncco3)c2)c(C)cc1Cl [Example 17, 4-chloro-2,5-dimethyl-N-(3-(oxazol-2-yl)phenyl)benzenesulfonamide] | 6
Cc1cc(S(=O)(=O)Nc2cccc(-c3ccn(C)n3)c2)c(C)cc1Cl [Example 18, 4-chloro-2,5-dimethyl-N-(3-(1-methyl-1H-pyrazol-3-yl)phenyl)benzenesulfonamide] | 8
Cc1cc(S(=O)(=O)Nc2cccc(-c3nccn3C)c2)c(C)cc1Cl [Example 19, 4-chloro-2,5-dimethyl-N-(3-(1-methyl-1H-imidazol-2-yl)phenyl)benzenesulfonamide] | 3
Cc1cc(S(=O)(=O)Nc2cccc(-c3ncc(C(=O)N(C)C)s3)c2)c(C)cc1Cl [Example 94, 2-(3-((4-chloro-2,5-dimethylphenyl)sulfonamido)phenyl)-N,N-dimethylthiazole-5-carboxamide] | > 100
Cc1cc(S(=O)(=O)N[C@H]2CCCN(C(=O)[C@H]3CCCN3C)C2)c(C)cc1Cl [Example 95, 4-chloro-2,5-dimethyl-N-((S)-1-(methyl-D-prolyl)piperidin-3-yl)benzenesulfonamide] | > 100
Cc1cc(S(=O)(=O)Nc2cccc(-c3ncc(C#N)s3)c2)c(C)cc1Cl [Example 96, 4-chloro-N-(3-(5-cyanothiazol-2-yl)phenyl)-2,5-dimethylbenzenesulfonamide] | 4
Cc1cc(S(=O)(=O)Nc2cccc(-c3ncc(-c4nnn[nH]4)s3)c2)c(C)cc1Cl [Example 97, N-(3-(5-(1H-tetrazol-5-yl)thiazol-2-yl)phenyl)-4-chloro-2,5-dimethylbenzenesulfonamide] | > 100
Cc1cnc(-c2ccc(C)c(NS(=O)(=O)c3cc(C)c(Cl)cc3C)c2)s1 [Example 98, 4-chloro-2,5-dimethyl-N-(2-methyl-5-(5-methylthiazol-2-yl)phenyl)benzenesulfonamide] | 9
Cc1nc2c(NS(=O)(=O)c3cc(C)c(Cl)cc3C)cccc2s1 [Example 99, 4-chloro-2,5-dimethyl-N-(2-methylbenzo[d]thiazol-4-yl)benzenesulfonamide] | > 100
Cc1cc(S(=O)(=O)N[C@@H]2CCCN(C(=O)[C@H]3CCCN3C)C2)c(C)cc1Cl [Example 100, 4-chloro-2,5-dimethyl-N-((R)-1-(methyl-D-prolyl)piperidin-3-yl)benzenesulfonamide] | > 100
Cc1cc(S(=O)(=O)N[C@H]2CCCN(C(=O)[C@@H]3CCCN3C)C2)c(C)cc1Cl [Example 101, 4-chloro-2,5-dimethyl-N-((S)-1-(methyl-L-prolyl)piperidin-3-yl)benzenesulfonamide] | > 100

The remaining lines, values ahead:

AC50 [µM] | Compound
16 | Cc1cc(S(=O)(=O)Nc2cccc(C(=O)N(C)C(C)CO)c2)c(C)cc1Cl (single isomer, unassigned) [Example 14, 3-((4-chloro-2,5-dimethylphenyl)sulfonamido)-N-(1-hydroxypropan-2-yl)-N-methylbenzamide]
31 | Cc1ccc(C)c(S(=O)(=O)Nc2cccc(C(=O)N3CCCCC3)c2)c1 [Example 3, 2,5-dimethyl-N-(3-(piperidine-1-carbonyl)phenyl)benzene sulfonamide]
33 | Cc1ccc(C)c(S(=O)(=O)Nc2cccc(C(=O)NCC3CC3)c2)c1 [Example 4, N-(cyclopropylmethyl)-3-((2,5-dimethylphenyl)sulfonamido)benzamide]
30 | Cc1ccc(C)c(S(=O)(=O)Nc2cccc(C(=O)N3CCCC[C@@H]3C)c2)c1 [Example 6, (S)-2,5-dimethyl-N-(3-(2-methylpiperidine-1-carbonyl)phenyl)benzenesulfonamide]
13 | Cc1ccc(C)c(S(=O)(=O)Nc2cccc(C(=O)N3CCOCC3C#N)c2)c1 (stereo not drawn) [Example 7, N-(3-(3-cyanomorpholine-4-carbonyl)phenyl)-2,5-dimethylbenzenesulfonamide]
23 | Cc1ccc(C)c(S(=O)(=O)Nc2cccc(C(=O)N[C@@H](C)C3CC3)c2)c1 [Example 8, (S)-N-(1-cyclopropylethyl)-3-((2,5-dimethylphenyl)sulfonamido)benzamide]
6 | Cc1cc(S(=O)(=O)Nc2cccc(C(=O)N3CCCC[C@H]3C)c2)c(C)cc1Cl [Example 9, (R)-4-chloro-2,5-dimethyl-N-(3-(2-methylpiperidine-1-carbonyl)phenyl)benzenesulfonamide]
3 | Cc1cc(S(=O)(=O)Nc2cccc(C(=O)N3CCC[C@H]3C)c2)c(C)cc1Cl [Example 10, (R)-4-chloro-2,5-dimethyl-N-(3-(2-methylpyrrolidine-1-carbonyl)phenyl)benzenesulfonamide]
34 | Cc1cc(S(=O)(=O)Nc2cccc(C(=O)NCc3ccccc3)c2)c(C)cc1Cl [Example 11, N-benzyl-3-((4-chloro-2,5-dimethylphenyl)sulfonamido)benzamide]
26 | Cc1cc(S(=O)(=O)Nc2cccc(C(=O)N(C)C)c2)c(C)cc1Cl [Example 12, 3-((4-chloro-2,5-dimethylphenyl)sulfonamido)-N,N-dimethylbenzamide]
1 | Cc1cc(S(=O)(=O)Nc2cccc(-c3ncc(C(N)=O)s3)c2)c(C)cc1Cl [Example 92, 2-(3-((4-chloro-2,5-dimethylphenyl)sulfonamido)phenyl) thiazole-5-carboxamide]
9 | CNC(=O)c1cnc(-c2cccc(NS(=O)(=O)c3cc(C)c(Cl)cc3C)c2)s1 [Example 93, 2-(3-((4-chloro-2,5-dimethylphenyl)sulfonamido)phenyl)-N-methylthiazole-5-carboxamide]

Reference: US20260138961A1, “MODULATORS OF MITOCHONDRIAL DNA REPLICATION” (Pretzel Therapeutics, Inc., priority 2022, published 2026)
